# Measurements reported in US6844354B1, “Agent for prophylaxis and treatment of interstitial pneumonia and pulmonary fibrosis” (Mitsubishi Pharma Corporation, priority 1999, dated 2005).
# Marks after values point to notes of the source that are not given here.
# Experiments:
# [1] = test system: bleomycin-induced interstitial pneumonia (pulmonary fibrosis) model; assay: Pulmonary fibrosis level by tissue staining (Aschcroft score) in bleomycin-induced model; assay type: in vivo, mouse; conditions: day 40
# Procedure: (§1) Female C57BL/6 mice (about 15 g, 6-week-old) in 4 mice per group (n=4) were intraperitoneally administered with bleomycin 5 times a day every other day (total dose: 200 mg/kg) to prepare a model with bleomycin-induced interstitial pneumonia (pulmonary fibrosis).
# (§2) Using the bleomycin-induced interstitial pneumonia (pulmonary fibrosis) model prepared in Experimental Example 1, the effect of the present invention on induced interstitial pneumonia (pulmonary fibrosis) was examined.
# (§3) Y-27632 was intraperitoneally administered immediately before bleomycin administration from the first day of bleomycin administration (0th) to day 8 (5th administration), and thereafter until day 40, by way of a single, alternate-day administration. At day 40, the level of fibrosis was checked by hydroxyproline content and tissue staining. The hydroxyproline content was measured according to the report of Tran et al. (Tran et al., J. Clin. Invest., 99: 608-617, 1997). The degree of fibrosis by tissue staining was evaluated by the Aschcroft score (Aschcroft et al., J. Clin. Pathol., 41: 467-70, 1988).
# Y-27632 suppressed the increase of Aschcroft score due to bleomycin administration at the dose of not less than 10 μg/kg (Table 2). In the Table, *:p<0.05, **:p<0.01.
# ROCK-II gene = assay: Expression of ROCK-II gene in the lung, real time quantitative RT-PCR; assay type: in vivo, mouse
# Procedure: as §1
# The expression of ROCK-II gene in the lung at 7, 14, 21 and 40 days after the start of the bleomycin administration was measured, and so was the value of an animal free of bleomycin administration. The amount of the expression of the ROCK-II gene was measured according to a real time quantitative RT-PCR method. As the primer, the following sequence was used [forward: CATGGTGCATTGCGACACA (SEQ ID No. 1), reverse: […] (SEQ ID No. 2)]. The amount of expression of the ROCK-II gene was expressed relatively in [(Rock-II m RNA)/(GAPDH m RNA)] using the expression amount of GAPDH (glyceraldehyde-3-phosphate dehydrogenase) gene as a standard. The results are shown in mean±SEM (n=4). For the test, (Satical analysis was performed One-way ANOVA test followed by Fisher's least significance test) was performed.
# [2] = test system: bleomycin-induced interstitial pneumonia (pulmonary fibrosis) model; assay: Number of inflammatory cells in bronchoalveolar lavage fluid (BALF) in bleomycin-induced model; assay type: in vivo, mouse
# Procedure: as §1
# Using the pulmonary fibrosis model administered with bleomycin as in Experimental Example 1, the effect of Y-27632 on the number of various inflammatory cells in BALF was examined.
# The dose of Y-27632 was administered every other day at the lo dose of 100 μg/kg in the same manner as in Experimental Example 2. BALF was recovered at day 7, day 14, day 21 and day 40 from the start of the bleomycin administration, and the number of total cells, macrophages, lymphocytes and neutrophils was counted (n=5). The number of total cells was measured by a hemocytometer. Smear preparations of the various cells in BALF were prepared by cytospin (Auto Smer CF-12D, Chiyoda seisakusho, Tokyo, Japan), stained with May-Gruenwald and subjected to the counting under a microscope.
# The results are shown in mean±SEM (n=5). For the test, (Satical analysis was performed One-way ANOVA test followed by Fisher's least significance test) was performed (*p<0.05; BLM group vs Y-27632 group) (§p<0.05; BLM group vs Normal group) (+p<0.05; Y-27632 group vs Normal group).
# fibroblast (NIH3T3 cell) = assay: Cell chemotaxis (Boyden chamber), NIH3T3 cell; assay type: cell-based; conditions: Mus musculus, 2 h; NIH3T3 cells, migration by PDGF-BB (10 ng/ml), 37° C. 120 min, n=6, mean±SEM; read-out: IC50 of suppression of migration
# Procedure: (§4) Mouse alveolar macrophage-derived cell line (MH-S cell), fibroblast (NIH3T3 cell) and mouse neutrophil were used. Casein was intraperitoneally administered to the mouse and the mouse neutrophil was isolated from ascites thereof after 6 h. The cell chemotaxis was measured by a Boyden chamber (chemotaxicell, KURABO, Japan). The pore size of the filter used was 5 μm for MH-S cell and neutrophil, and 8 μm for NIH3T3 cell. As a chemotactic factor, lipopolysaccharide (LPS, E.coli: B-4, Sigma, St Louis, Mo., USA) was used for MH-S cell, mouse interleukin 1β (IL-1β, Genzyme/techne, USA) was used for neutrophil, and a […] (PDGF-BB, UBI, Lake Placid, USA) was used for NIH3T3 cell. The chemotactic factors were added to a lower layer and Y-27632 were added to a higher layer at various concentrations. The reaction was carried out at 37° C. for 120 min for MH-S cell and NIH3T3 cell and 37° C. for 90 min for neutrophil. After the completion of the reaction, migrated cells were stained with Giemsa (Muto, CO., Ltd, Japan) and the cells were counted. The value is in mean±SEM.
# [3] = test system: Mouse alveolar macrophage-derived cell line (MH-S cell); assay: Cell chemotaxis (Boyden chamber), MH-S cell; assay type: cell-based; conditions: 2 h, MH-S cells, migration by LPS (1 μg/ml), 37° C. 120 min, n=6, mean±SEM, read-out: IC50 of suppression of migration
# Procedure: as §4
# [4] = test system: bleomycin-induced interstitial pneumonia (pulmonary fibrosis) model; assay: Hydroxyproline content in bleomycin-induced interstitial pneumonia (pulmonary fibrosis) model; assay type: in vivo, mouse; conditions: day 40
# Procedure: as §1, §2, §3
# The suppression percentage was calculated based on the bleomycin alone administration group as 0% suppression, and the physiological saline administration group as 100% suppression.
# mouse neutrophil = assay: Cell chemotaxis (Boyden chamber), mouse neutrophil; assay type: cell-based; conditions: 1.5 h, neutrophils, migration by IL-1. (5 ng/ml), 37° C. 90 min, n=6, mean±SEM, read-out: IC50 of suppression of migration
# Procedure: as §4
# [5] = Y-27632 100 μg/kg every other day vs BLM group, days 7-40
# [6] = Y-27632 alone 1000 μg/kg (no bleomycin)
molecule,measurement,setting,value
bleomycin,Aschcroft score (mean ± standard error),[1]; bleomycin alone (total dose 200 mg/kg i.p.),3.54 ± 0.43
same,Expression amount of ROCK-II gene (ROCK-II mRNA/GAPDH mRNA) vs bleomycin non-administration group,"ROCK-II gene; day 7 and day 21, bleomycin total dose 200 mg/kg i.p.",significantly high
same,Increase of expression amount of ROCK-II gene relative to bleomycin non-administration group,"ROCK-II gene; day 21, bleomycin total dose 200 mg/kg i.p.",about 9 times
"C[C@@H](N)[C@H]1CC[C@H](C(=O)Nc2ccncc2)CC1 [Y-27632, (+)-trans-4-(1-aminoethyl)-1-(4-pyridylcarbamoyl)cyclohexane 2HCl.1H2O]",Number of macrophages in BALF,[2]; [5],significantly lower results than BLM group
same,Number of neutrophils in BALF,[2]; [5],significantly lower results than BLM group
same,Number of total cells in BALF,[2]; [5],significantly lower results than BLM group
same,Lymphocyte counts in BALF,"[2]; Y-27632 100 μg/kg every other day, BLM, Y-27632 and Normal groups",did not show a significant difference among 3 groups
same,Aschcroft score (mean ± standard error),[1]; [6],1.33 ± 0.21
same,Aschcroft score (mean ± standard error),[1]; bleomycin + Y-27632 0.1 μg/kg,2.79 ± 0.26
same,Aschcroft score (mean ± standard error),"[1]; bleomycin + Y-27632 10 μg/kg, p<0.01",1.85 ± 0.26**
same,Aschcroft score (mean ± standard error),"[1]; bleomycin + Y-27632 100 μg/kg, p<0.05",1.98 ± 0.41*
same,Dose suppressing the increase of Aschcroft score due to bleomycin administration,[1],not less than 10 μg/kg
same,IC50,fibroblast (NIH3T3 cell),1.6 ± 0.5 µM
same,IC50,[3],4.8 ± 2 µM
same,Suppression (%) of the increase of hydroxyproline content,[4]; [6],92.1%
same,Suppression (%) of the increase of hydroxyproline content,[4]; bleomycin + Y-27632 0.01 μg/kg i.p. alternate-day,−10.6%
same,Suppression (%) of the increase of hydroxyproline content,[4]; bleomycin + Y-27632 0.1 μg/kg i.p. alternate-day,28.2%
same,Suppression (%) of the increase of hydroxyproline content,[4]; bleomycin + Y-27632 1 μg/kg i.p. alternate-day,30.0%
same,Suppression (%) of the increase of hydroxyproline content,[4]; bleomycin + Y-27632 10 μg/kg i.p. alternate-day,38.6%
same,Suppression (%) of the increase of hydroxyproline content,[4]; bleomycin + Y-27632 100 μg/kg i.p. alternate-day,53.8%
same,Effect on the increase of hydroxyproline content due to bleomycin administration,[4]; i.p. alternate-day,dose-dependently suppressed
same,IC50,mouse neutrophil,8.4 ± 2.1 µM
